Counter-ions that a name gives are not always drawn.
Columns and labels:
[1] = Influence of plasticiser type on the MFFT of Aquacoat dispersion; format: physicochemical; conditions: plasticiser added as emulsion
Procedure: (§1) Two different methods were used to evaluate the influence of plasticiser type, quantity and incorporation technique on the MFFT on Surelease® EA7100 and Aquacoat® ECD30. The minimum film-forming temperature (MFFT) is the lowest temperature at which the film-forming composition solidifies to form a film.
(§2) The first was by pouring the dispersions onto glass petri dishes. These dispersions were dried at ambient temperature (15-25° C.) in Class 2 cleanroom environment and inspected visually. They referred to the plasticisation level needed to form films at 20±5° C. The same numerical grading system was used to evaluate the mixed films of examples 2 to 4.
(§3) The second method determined the specific MFFT for each formulation. A MFFT bar was used. The hot water bath on one end of the MFFT bar was set at 46±1° C. and the cold water bath on the other end was set at 3±1° C. This created a temperature gradient of 32.5±1.0° C. to 12±1.0° C. across the spreading surface. The temperature gradient across the MFFT bar was allowed to equilibrate for at least two hours prior to use. The temperatures were measured at the beginning and at the end of each experiment using a Jenway 3070 digital-display thermometer. The apparatus was levelled using the adjustable support and a spirit level. The plasticised dispersion formulations were spread across the surface. Once spread, the film was allowed to form at room humidity. After the film had dried, the lowest temperature on the bar at which the film was still continuous was taken as the MFFT. If the film became discontinuous in between two temperature sampling points then the higher of the two sampled temperatures was taken to be the MFFT. All experiments were duplicated. The reported MFFT was an average of the four temperatures taken at the beginning and at the end of each duplicate experiment.
(§4) In the third technique, the required amount of plasticiser, Tween 80™ and the pseudolatex were mixed with a high speed Silverson homogeniser mixer for 3 minutes. The additional plasticiser content of compositions comprising Surelease® has between 0 and 12% by weight of the ethyl cellulose solids. For compositions comprising Aquacoat®, plasticiser contents of between 18 and 30% by weight of the ethyl cellulose solids were investigated. In all cases Tween 80™ was present in an amount of 0.01% by weight of the dispersion. The formulations were left overnight in sealed containers. Any formulations that remained foamy after overnight storage were not investigated further. Otherwise, the formulations were evaluated on the MFFT apparatus. The plasticisers used were dibutyl sebacate, triethyl citrate, triacetin, acetyl tributyl citrate, tributyl citrate, polypropylene glycol, glycerol and polyethylene glycol 400.
In the final technique, Tween 80, the plasticiser and water were premixed into a crude emulsion prior to addition to ethyl cellulose coating dispersions. A plasticiser emulsion was formed by mixing parts of plasticiser and water with 0.1% of Tween 80™ using a Silverson homogeniser mixer. The freshly mixed plasticiser emulsion was then added to the ethyl cellulose coating dispersion by magnetic stirring for 30 minutes. […] Only Aquacoat® ECD30 formulations were investigated. Aquacoat® ECD30 was plasticised with dibutyl sebacate, triethyl citrate, triacetin, acetyl tributyl citrate, tributyl citrate, polypropylene glycol, glycerol and polyethylene glycol 400. The basic formulations comprise between 18 and 36% of plasticiser by weight of solids in the dispersion and 0.1% w/w Tween 80.

[2] = Influence of plasticiser type on the MFFT of Surelease dispersion; format: physicochemical; conditions: plasticiser added by high-shear mixing
Procedure: as §1, §2, §3, §4

| Structure (SMILES) | Lowering of the MFFT of Aquacoat® [1] | Lowering of the MFFT of Surelease® [2] |
| --- | --- | --- |
| CCCCOC(=O)CCCCCCCCC(=O)OCCCC [dibutyl sebacate] | successful in lowering the MFFT | successful in lowering the MFFT |
| CCCCOC(=O)CC(CC(=O)OCCCC)(OC(C)=O)C(=O)OCCCC [acetyl tributyl citrate] | successful in lowering the MFFT | successful in lowering the MFFT |
| CCOC(=O)CC(O)(CC(=O)OCC)C(=O)OCC [triethyl citrate] | lowering the MFFT | – |
| CCCCOC(=O)CC(O)(CC(=O)OCCCC)C(=O)OCCCC [tributyl citrate] | successful in lowering the MFFT | successful in lowering the MFFT |
| CC(=O)OCC(COC(C)=O)OC(C)=O [triacetin] | lowering the MFFT | – |
| OCC(O)CO [glycerol] | unsuccessful | unsuccessful |

From patent publication US6743445B2, “Low temperature coatings” (BTG International Limited, priority 1998, dated 2004)
